From ChEMBL document CHEMBL2057064, “Activation of human RNase L by 2'- and 5'-O-methylphosphonate-modified oligoadenylates” (Bioorg Med Chem Lett, 2012) come the findings set out here.

The term EC50 denotes the midpoint of the concentration-response curve.

The target of assay [1] is T1, 2-5A-dependent ribonuclease (Homo sapiens) (UniProt Q05823).
T1 sequence (whole entry): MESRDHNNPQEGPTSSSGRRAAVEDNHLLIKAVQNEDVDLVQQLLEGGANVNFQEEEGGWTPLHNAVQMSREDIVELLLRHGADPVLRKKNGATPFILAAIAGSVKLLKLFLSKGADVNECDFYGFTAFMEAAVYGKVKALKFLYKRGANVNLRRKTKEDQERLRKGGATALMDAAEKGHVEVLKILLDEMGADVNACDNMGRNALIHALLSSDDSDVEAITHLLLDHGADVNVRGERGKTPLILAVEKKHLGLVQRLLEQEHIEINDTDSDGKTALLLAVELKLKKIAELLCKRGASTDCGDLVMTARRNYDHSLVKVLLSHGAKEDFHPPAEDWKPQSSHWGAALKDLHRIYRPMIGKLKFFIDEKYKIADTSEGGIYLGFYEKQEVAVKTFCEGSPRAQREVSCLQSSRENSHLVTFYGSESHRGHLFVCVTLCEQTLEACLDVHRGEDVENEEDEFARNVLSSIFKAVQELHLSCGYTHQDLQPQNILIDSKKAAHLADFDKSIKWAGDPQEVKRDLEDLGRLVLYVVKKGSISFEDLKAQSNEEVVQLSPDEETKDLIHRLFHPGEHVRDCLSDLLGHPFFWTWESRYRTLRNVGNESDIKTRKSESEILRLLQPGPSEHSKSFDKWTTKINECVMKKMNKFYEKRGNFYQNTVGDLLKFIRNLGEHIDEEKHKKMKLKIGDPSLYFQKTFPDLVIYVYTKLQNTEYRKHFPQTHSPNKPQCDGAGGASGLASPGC
The experiment in a line: (§1) Activation of human RNase L expressed in Escherichia coli BL21 (DE3) cells assessed as RNA cleavage using Cy5-rC11-UU-C7-BHQ2 as substrate by FRET assay.

In assay [2] the target is T2, 2-5A-dependent ribonuclease (Homo sapiens, UniProt Q05823).
T2 sequence (Q05823 whole entry): T1 sequence (whole entry)
Described as §1.

The source made the active and inactive calls. The rule behind the calls is not given here.

Take `Nc1ncnc2c1ncn2[C@@H]1O[C@H](COCP(=O)(O)O[C@@H]2[C@H](O)[C@@H](COP(=O)(O)O[C@@H]3[C@H](O)[C@@H](COP(=O)(O)O[C@@H]4[C@H](O)[C@@H](COP(=O)(O)O)O[C@H]4n4cnc5c(N)ncnc54)O[C@H]3n3cnc4c(N)ncnc43)O[C@H]2n2cnc3c(N)ncnc32)[C@H](O)[C@H]1O`: the result in assay [1] was Active. In assay [2], the EC50 worked out at 4.2 nM.
For the compound `Nc1ncnc2c1ncn2[C@@H]1O[C@H](COP(=O)(O)O[C@@H]2[C@H](O)[C@@H](COCP(=O)(O)O[C@@H]3[C@H](O)[C@@H](COP(=O)(O)O[C@@H]4[C@H](O)[C@@H](COP(=O)(O)O)O[C@H]4n4cnc5c(N)ncnc54)O[C@H]3n3cnc4c(N)ncnc43)O[C@H]2n2cnc3c(N)ncnc32)[C@@H](O)[C@H]1O`, in assay [1], the result was inactive. In addition, the EC50 in assay [2] was 300 nM.
In the same order, the values of `Nc1ncnc2c1ncn2[C@@H]1O[C@H](COP(=O)(O)CO[C@H]2[C@H](O)[C@@H](COP(=O)(O)O[C@@H]3[C@H](O)[C@@H](COP(=O)(O)O[C@@H]4[C@H](O)[C@@H](COP(=O)(O)O)O[C@H]4n4cnc5c(N)ncnc54)O[C@H]3n3cnc4c(N)ncnc43)O[C@H]2n2cnc3c(N)ncnc32)[C@@H](O)[C@H]1O` are “Active” and 1000 nM.
Regarding `Nc1ncnc2c1ncn2[C@@H]1O[C@H](COP(=O)(O)CO[C@@H]2[C@H](O)[C@@H](COP(=O)(O)O[C@@H]3[C@H](O)[C@@H](COP(=O)(O)O[C@@H]4[C@H](O)[C@@H](COP(=O)(O)O)O[C@H]4n4cnc5c(N)ncnc54)O[C@H]3n3cnc4c(N)ncnc43)O[C@H]2n2cnc3c(N)ncnc32)[C@@H](O)[C@H]1O`, the result in assay [1] was Active. In addition, the EC50 in assay [2] amounted to 200 nM.
In the case of `Nc1ncnc2c1ncn2[C@@H]1O[C@H](COP(=O)(O)O[C@@H]2[C@@H](O)[C@@H](COCP(=O)(O)O[C@@H]3[C@H](O)[C@@H](COP(=O)(O)O[C@@H]4[C@H](O)[C@@H](COP(=O)(O)O)O[C@H]4n4cnc5c(N)ncnc54)O[C@H]3n3cnc4c(N)ncnc43)O[C@H]2n2cnc3c(N)ncnc32)[C@@H](O)[C@H]1O`, the outcome in assay [1] was Active. Moreover, in assay [2], the EC50 came to 1000 nM.
In the same order, the values of `Nc1ncnc2c1ncn2[C@@H]1O[C@H](COP(=O)(O)O[C@@H]2[C@H](O)[C@@H](COP(=O)(O)O[C@@H]3[C@H](O)[C@@H](COP(=O)(O)O[C@@H]4[C@@H](O)[C@@H](COCP(=O)(O)O)O[C@H]4n4cnc5c(N)ncnc54)O[C@H]3n3cnc4c(N)ncnc43)O[C@H]2n2cnc3c(N)ncnc32)[C@@H](O)[C@H]1O` are “Active” and 300 nM.
Consider `Nc1ncnc2c1ncn2[C@@H]1O[C@H](COP(=O)(O)O[C@H]2[C@H](O)[C@@H](COCP(=O)(O)O[C@@H]3[C@H](O)[C@@H](COP(=O)(O)O[C@@H]4[C@H](O)[C@@H](COP(=O)(O)O)O[C@H]4n4cnc5c(N)ncnc54)O[C@H]3n3cnc4c(N)ncnc43)O[C@H]2n2cnc3c(N)ncnc32)[C@@H](O)[C@H]1O`, for which the EC50 in assay [2] is greater than 1000 nM.
Consider `Nc1ncnc2c1ncn2[C@@H]1O[C@H](COP(=O)(O)O[C@@H]2[C@H](O)[C@@H](COP(=O)(O)O[C@@H]3[C@H](O)[C@@H](COP(=O)(O)CO[C@@H]4[C@@H](O)[C@@H](COP(=O)(O)O)O[C@H]4n4cnc5c(N)ncnc54)O[C@H]3n3cnc4c(N)ncnc43)O[C@H]2n2cnc3c(N)ncnc32)[C@@H](O)[C@H]1O`, for which the outcome in assay [1] was Active. Besides, the EC50 in assay [2] was found to be 300 nM.
Consider `Nc1ncnc2c1ncn2[C@@H]1O[C@H](COP(=O)(O)O[C@@H]2[C@H](O)[C@@H](COP(=O)(O)O[C@@H]3[C@H](O)[C@@H](COP(=O)(O)O[C@H]4[C@H](O)[C@@H](COCP(=O)(O)O)O[C@H]4n4cnc5c(N)ncnc54)O[C@H]3n3cnc4c(N)ncnc43)O[C@H]2n2cnc3c(N)ncnc32)[C@@H](O)[C@H]1O`, for which, in assay [1], the outcome was Active. Besides, the EC50 in assay [2] was determined as 1000 nM.
Take `Nc1ncnc2c1ncn2[C@@H]1O[C@H](COP(=O)(O)O[C@@H]2[C@H](O)[C@@H](COP(=O)(O)O[C@@H]3[C@H](O)[C@@H](COP(=O)(O)CO[C@@H]4[C@H](O)[C@@H](COP(=O)(O)O)O[C@H]4n4cnc5c(N)ncnc54)O[C@H]3n3cnc4c(N)ncnc43)O[C@H]2n2cnc3c(N)ncnc32)[C@@H](O)[C@H]1O`: the EC50 in assay [2] is greater than 1000 nM.
The same measure, in the same setting: the value for `Nc1ncnc2c1ncn2[C@@H]1O[C@H](COP(=O)(O)O[C@@H]2[C@H](O)[C@@H](COP(=O)(O)O[C@@H]3[C@H](O)[C@@H](COP(=O)(O)O[C@@H]4[C@H](O)[C@@H](COP(=O)(O)O)O[C@H]4n4cnc5c(N)ncnc54)O[C@H]3n3cnc4c(N)ncnc43)O[C@H]2n2cnc3c(N)ncnc32)[C@@H](O)[C@H]1O` was 17 nM; that for `Nc1ncnc2c1ncn2[C@@H]1O[C@H](COP(=O)(O)CO[C@@H]2[C@@H](O)[C@@H](COP(=O)(O)O[C@@H]3[C@H](O)[C@@H](COP(=O)(O)O[C@@H]4[C@H](O)[C@@H](COP(=O)(O)O)O[C@H]4n4cnc5c(N)ncnc54)O[C@H]3n3cnc4c(N)ncnc43)O[C@H]2n2cnc3c(N)ncnc32)[C@@H](O)[C@H]1O` was greater than 1000 nM.
`Nc1ncnc2c1ncn2[C@@H]1O[C@H](COP(=O)(O)O[C@@H]2[C@H](O)[C@@H](COP(=O)(O)O[C@H]3[C@H](O)[C@@H](COCP(=O)(O)O[C@@H]4[C@H](O)[C@@H](COP(=O)(O)O)O[C@H]4n4cnc5c(N)ncnc54)O[C@H]3n3cnc4c(N)ncnc43)O[C@H]2n2cnc3c(N)ncnc32)[C@@H](O)[C@H]1O`: the EC50 in assay [2] is greater than 1000 nM.
Turning to `Nc1ncnc2c1ncn2[C@@H]1O[C@H](COP(=O)(O)O[C@@H]2[C@H](O)[C@@H](COP(=O)(O)O[C@@H]3[C@H](O)[C@@H](COCP(=O)(O)O[C@@H]4[C@H](O)[C@@H](COP(=O)(O)O)O[C@H]4n4cnc5c(N)ncnc54)O[C@H]3n3cnc4c(N)ncnc43)O[C@H]2n2cnc3c(N)ncnc32)[C@@H](O)[C@H]1O`, the outcome in assay [1] was inactive. Further, in assay [2], the EC50 is greater than 1000 nM.
The like results for `Nc1ncnc2c1ncn2[C@@H]1O[C@H](COCP(=O)(O)O[C@@H]2[C@H](O)[C@@H](COP(=O)(O)O[C@@H]3[C@H](O)[C@@H](COP(=O)(O)O[C@@H]4[C@H](O)[C@@H](COP(=O)(O)O)O[C@H]4n4cnc5c(N)ncnc54)O[C@H]3n3cnc4c(N)ncnc43)O[C@H]2n2cnc3c(N)ncnc32)[C@@H](O)[C@H]1O` were, in that order, “Active” and 15 nM.
For the compound `Nc1ncnc2c1ncn2[C@@H]1O[C@H](COCP(=O)(O)O[C@@H]2[C@H](O)[C@@H](COP(=O)(O)O[C@@H]3[C@H](O)[C@@H](COP(=O)(O)O[C@@H]4[C@H](O)[C@@H](COP(=O)(O)O)O[C@H]4n4cnc5c(N)ncnc54)O[C@H]3n3cnc4c(N)ncnc43)O[C@H]2n2cnc3c(N)ncnc32)[C@@H](O)[C@@H]1O`, in assay [1], the result was Active. For the same compound, the EC50 in assay [2] amounted to 6.5 nM.
For the compound `Nc1ncnc2c1ncn2[C@@H]1O[C@H](COP(=O)(O)O[C@@H]2[C@H](O)[C@@H](COP(=O)(O)O[C@@H]3[C@H](O)[C@@H](COP(=O)(O)CO[C@H]4[C@H](O)[C@@H](COP(=O)(O)O)O[C@H]4n4cnc5c(N)ncnc54)O[C@H]3n3cnc4c(N)ncnc43)O[C@H]2n2cnc3c(N)ncnc32)[C@@H](O)[C@H]1O`, in assay [2], the EC50 was greater than 1000 nM.
